Results taken from the CheMixHub viscosity set.
± gives the uncertainty stated by the source.

Experiment: xn = mol fraction of the nth substance listed

COCCOCCOC + CC(C)CO
viscosity [mPa·s], 101 kPa
Details	x1 = 0.104	x1 = 0.2048	x1 = 0.3058	x1 = 0.4023	x1 = 0.5027	x1 = 0.605	x1 = 0.7019	x1 = 0.8023	x1 = 0.9024
298.15 K	2.146 ± 0.013	1.635 ± 0.01	1.377 ± 0.009	1.231 ± 0.008	1.136 ± 0.007	1.076 ± 0.007	1.038 ± 0.007	1.011 ± 0.007	0.995 ± 0.007
308.15 K	1.649 ± 0.01	1.302 ± 0.008	1.121 ± 0.007	1.013 ± 0.007	0.947 ± 0.006	0.904 ± 0.006	0.876 ± 0.006	0.856 ± 0.006	0.846 ± 0.006
318.15 K	1.284 ± 0.008	1.047 ± 0.007	0.938 ± 0.006	0.845 ± 0.006	0.796 ± 0.005	0.78 ± 0.005	0.747 ± 0.005	0.733 ± 0.005	0.726 ± 0.005

CCCO + CO
Details	viscosity [mPa·s]
293.15 K, 101 kPa, x2 = 0.25	1.379 ± 0.017
293.15 K, 101 kPa, x2 = 0.5	1.015 ± 0.013
293.15 K, 101 kPa, x2 = 0.75	0.825 ± 0.01
293.15 K, 101.3 kPa, x2 = 0.174	1.78 ± 0.03
293.15 K, 101.3 kPa, x2 = 0.339	1.45 ± 0.02
293.15 K, 101.3 kPa, x2 = 0.51	1.16 ± 0.02
293.15 K, 101.3 kPa, x2 = 0.741	0.857 ± 0.012
293.15 K, 101.3 kPa, x2 = 0.873	0.711 ± 0.01
298.15 K, 101 kPa, x2 = 0.25	1.243 ± 0.016
298.15 K, 101 kPa, x2 = 0.5	0.931 ± 0.012
298.15 K, 101 kPa, x2 = 0.75	0.775 ± 0.01
298.15 K, 101.33 kPa, x2 = 0.1414	1.672 ± 0.055
298.15 K, 101.33 kPa, x2 = 0.2419	1.483 ± 0.049
298.15 K, 101.33 kPa, x2 = 0.3419	1.315 ± 0.044
298.15 K, 101.33 kPa, x2 = 0.4462	1.159 ± 0.039
298.15 K, 101.33 kPa, x2 = 0.5137	1.067 ± 0.036
298.15 K, 101.33 kPa, x2 = 0.5731	0.992 ± 0.034
298.15 K, 101.33 kPa, x2 = 0.7216	0.825 ± 0.029
298.15 K, 101.33 kPa, x2 = 0.8038	0.744 ± 0.026
298.15 K, 101.33 kPa, x2 = 0.8805	0.662 ± 0.024
303.15 K, 101 kPa, x2 = 0.25	1.128 ± 0.014
303.15 K, 101 kPa, x2 = 0.5	0.856 ± 0.011
303.15 K, 101 kPa, x2 = 0.75	0.717 ± 0.009
308.15 K, 101 kPa, x2 = 0.25	1.028 ± 0.013
308.15 K, 101 kPa, x2 = 0.5	0.788 ± 0.01
308.15 K, 101 kPa, x2 = 0.75	0.663 ± 0.008
313.15 K, 101 kPa, x2 = 0.25	0.938 ± 0.012
313.15 K, 101 kPa, x2 = 0.5	0.728 ± 0.009
313.15 K, 101 kPa, x2 = 0.75	0.615 ± 0.008
313.15 K, 101.3 kPa, x2 = 0.174	1.17 ± 0.02
313.15 K, 101.3 kPa, x2 = 0.339	0.986 ± 0.014
313.15 K, 101.3 kPa, x2 = 0.51	0.822 ± 0.012
313.15 K, 101.3 kPa, x2 = 0.741	0.624 ± 0.009
313.15 K, 101.3 kPa, x2 = 0.873	0.53 ± 0.008
318.15 K, 101 kPa, x2 = 0.25	0.859 ± 0.011
318.15 K, 101 kPa, x2 = 0.5	0.673 ± 0.008
318.15 K, 101 kPa, x2 = 0.75	0.571 ± 0.007
323.15 K, 101 kPa, x2 = 0.25	0.787 ± 0.01
323.15 K, 101 kPa, x2 = 0.5	0.623 ± 0.008
323.15 K, 101 kPa, x2 = 0.75	0.531 ± 0.007

COCCOCCOC + CCOC(C)=O
viscosity [mPa·s], 101.33 kPa
Details	x1 = 0.1016	x1 = 0.2005	x1 = 0.3016	x1 = 0.4007	x1 = 0.4999	x1 = 0.6005	x1 = 0.6994	x1 = 0.8013	x1 = 0.8999
298.15 K	0.477 ± 0.007	0.527 ± 0.008	0.579 ± 0.008	0.633 ± 0.009	0.69 ± 0.009	0.748 ± 0.01	0.815 ± 0.011	0.867 ± 0.011	0.92 ± 0.012
303.15 K	0.451 ± 0.007	0.497 ± 0.007	0.546 ± 0.008	0.594 ± 0.008	0.645 ± 0.009	0.698 ± 0.009	0.75 ± 0.01	0.807 ± 0.011	0.854 ± 0.011
308.15 K	0.428 ± 0.006	0.469 ± 0.007	0.513 ± 0.007	0.558 ± 0.008	0.604 ± 0.008	0.653 ± 0.009	0.706 ± 0.009	0.748 ± 0.01	0.794 ± 0.01
313.15 K	0.406 ± 0.006	0.445 ± 0.007	0.485 ± 0.007	0.526 ± 0.008	0.569 ± 0.008	0.612 ± 0.008	0.659 ± 0.009	0.7 ± 0.009	0.74 ± 0.01
318.15 K	0.385 ± 0.006	0.421 ± 0.006	0.459 ± 0.007	0.496 ± 0.007	0.535 ± 0.008	0.575 ± 0.008	0.616 ± 0.008	0.653 ± 0.009	0.689 ± 0.009

COCCOCCOC + ClC(Cl)Cl
298.15 K, 101.33 kPa
Details	viscosity [mPa·s]
x1 = 0.0986	0.727 ± 0.008
x1 = 0.2039	0.946 ± 0.009
x1 = 0.2993	1.028 ± 0.009
x1 = 0.3966	1.082 ± 0.01
x1 = 0.4825	1.094 ± 0.01
x1 = 0.5247	1.093 ± 0.01
x1 = 0.5864	1.08 ± 0.01
x1 = 0.6365	1.072 ± 0.009
x1 = 0.7006	1.054 ± 0.009
x1 = 0.7976	1.033 ± 0.009
x1 = 0.8985	1.011 ± 0.009
x1 = 0.9325	1.008 ± 0.009

COCCOCCOC + CCOC(=O)OCC
viscosity [mPa·s], 101.33 kPa
Details	298.15 K	308.15 K	318.15 K
x1 = 0.0487	0.761 ± 0.01	0.669 ± 0.009	0.572 ± 0.03
x1 = 0.0871	0.774 ± 0.01	0.674 ± 0.009	0.593 ± 0.008
x1 = 0.1367	0.787 ± 0.01	0.68 ± 0.009	0.6 ± 0.008
x1 = 0.18	0.798 ± 0.01	0.687 ± 0.009	0.607 ± 0.008
x1 = 0.2621	0.817 ± 0.01	0.706 ± 0.009	0.618 ± 0.008
x1 = 0.306	0.828 ± 0.011	0.713 ± 0.009	0.626 ± 0.008
x1 = 0.3935	0.849 ± 0.011	0.731 ± 0.01	0.64 ± 0.009
x1 = 0.4303	0.857 ± 0.011	0.739 ± 0.01	0.652 ± 0.009
x1 = 0.4835	0.87 ± 0.011	0.747 ± 0.01	0.656 ± 0.009
x1 = 0.557	0.886 ± 0.011	0.766 ± 0.01	0.665 ± 0.009
x1 = 0.6202	0.899 ± 0.011	0.772 ± 0.01	0.674 ± 0.009
x1 = 0.6549	0.907 ± 0.011	0.783 ± 0.01	0.679 ± 0.009
x1 = 0.7104	0.92 ± 0.012	0.79 ± 0.01	0.687 ± 0.009
x1 = 0.7618	0.933 ± 0.012	0.799 ± 0.01	0.695 ± 0.009
x1 = 0.8134	0.945 ± 0.012	0.809 ± 0.01	0.702 ± 0.009
x1 = 0.8478	0.952 ± 0.012	0.814 ± 0.01	0.707 ± 0.009
x1 = 0.938	0.97 ± 0.012	0.825 ± 0.011	0.719 ± 0.009
x1 = 0.9718	0.979 ± 0.012	0.832 ± 0.011	0.725 ± 0.009
x2 = 0.0073	0.987 ± 0.012	0.837 ± 0.011	0.727 ± 0.009
